Here are results for 4 compounds from patent US20250034216A1, “STEREOSELECTIVE COVALENT LIGANDS FOR ONCOGENIC AND IMMUNOLOGICAL PROTEINS” (The Scripps Research Institute, priority 2021, published 2025).

Molecules are shown by their SMILES.

Common to all, as to assay: IA-DTB cysteine engagement
What all share (format): binding
Holding throughout (settings): 22Rv1 cells, 20 μM probe, 1 h, relative to DMSO

For one assay, the target named is T1, PRXL2A_C88 (Homo sapiens, UniProt Q9BRX8).
T1 construct: endogenous in cells; host or cells: 22Rv1
T1 sequence (Q9BRX8 1-229): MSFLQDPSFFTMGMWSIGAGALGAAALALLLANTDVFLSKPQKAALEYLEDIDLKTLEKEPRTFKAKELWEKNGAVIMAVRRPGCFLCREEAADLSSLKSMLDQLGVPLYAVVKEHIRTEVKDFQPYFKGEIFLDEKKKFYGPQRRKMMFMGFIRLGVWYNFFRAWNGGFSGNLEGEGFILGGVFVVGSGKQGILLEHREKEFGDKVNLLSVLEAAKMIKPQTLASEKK
Summed up: (§1)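 Read-out is TMT-based cysteine engagement, expressed as each reporter ion intensity divided by the average of the DMSO channels. Before that, probe-treated cell lysates were capped with IA-DTB, digested, enriched on streptavidin and TMT-tagged. PSMs with DMSO summed intensity <10,000 or DMSO CV >0.5 were excluded.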

The next assay deals with T2, SYNE2_C2993 (Homo sapiens, UniProt Q8WXH0).
T2 construct: endogenous in cells; host or cells: 22Rv1
Summed up: as §1

The target of a further assay is T3, ITPR2_C579 (Homo sapiens, UniProt Q14571).
T3 construct: endogenous in cells; host or cells: 22Rv1
A digest of the protocol:
as §1

Another assay concerns the target T4, CDKN2AIP_C516 (Homo sapiens, UniProt Q9NXV6).
T4 construct: endogenous in cells; host or cells: 22Rv1
T4 sequence (Q9NXV6 1-580): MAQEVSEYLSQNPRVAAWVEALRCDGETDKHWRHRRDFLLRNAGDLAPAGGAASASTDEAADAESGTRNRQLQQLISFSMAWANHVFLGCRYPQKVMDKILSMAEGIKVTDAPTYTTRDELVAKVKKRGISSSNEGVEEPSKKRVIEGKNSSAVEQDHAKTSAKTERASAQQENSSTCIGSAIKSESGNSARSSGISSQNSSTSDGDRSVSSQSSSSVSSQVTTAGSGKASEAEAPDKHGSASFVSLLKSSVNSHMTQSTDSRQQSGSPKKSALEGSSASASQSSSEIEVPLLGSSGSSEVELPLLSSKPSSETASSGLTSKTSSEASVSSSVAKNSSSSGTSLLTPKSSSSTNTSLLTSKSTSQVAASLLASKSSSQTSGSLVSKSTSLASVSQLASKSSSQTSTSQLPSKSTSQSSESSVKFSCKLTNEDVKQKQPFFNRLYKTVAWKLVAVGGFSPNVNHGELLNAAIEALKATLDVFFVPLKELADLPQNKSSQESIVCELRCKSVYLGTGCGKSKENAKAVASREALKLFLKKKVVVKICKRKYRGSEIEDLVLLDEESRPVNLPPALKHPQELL
Summed up:
as §1

The target of the next assay is T5, HSDL1_C265 (Homo sapiens, UniProt Q3SXM5).
T5 construct: endogenous in cells; host or cells: 22Rv1
T5 sequence (Q3SXM5 1-330): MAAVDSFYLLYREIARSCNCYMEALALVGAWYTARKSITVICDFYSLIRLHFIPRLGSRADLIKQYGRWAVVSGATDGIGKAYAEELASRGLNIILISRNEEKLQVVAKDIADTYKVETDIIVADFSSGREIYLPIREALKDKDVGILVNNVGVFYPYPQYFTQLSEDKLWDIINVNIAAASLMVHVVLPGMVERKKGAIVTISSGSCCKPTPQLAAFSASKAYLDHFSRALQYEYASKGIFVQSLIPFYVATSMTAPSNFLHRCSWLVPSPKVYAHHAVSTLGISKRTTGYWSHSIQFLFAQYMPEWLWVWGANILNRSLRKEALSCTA
Summed up:
as §1

T3 sequence (Q14571 whole entry): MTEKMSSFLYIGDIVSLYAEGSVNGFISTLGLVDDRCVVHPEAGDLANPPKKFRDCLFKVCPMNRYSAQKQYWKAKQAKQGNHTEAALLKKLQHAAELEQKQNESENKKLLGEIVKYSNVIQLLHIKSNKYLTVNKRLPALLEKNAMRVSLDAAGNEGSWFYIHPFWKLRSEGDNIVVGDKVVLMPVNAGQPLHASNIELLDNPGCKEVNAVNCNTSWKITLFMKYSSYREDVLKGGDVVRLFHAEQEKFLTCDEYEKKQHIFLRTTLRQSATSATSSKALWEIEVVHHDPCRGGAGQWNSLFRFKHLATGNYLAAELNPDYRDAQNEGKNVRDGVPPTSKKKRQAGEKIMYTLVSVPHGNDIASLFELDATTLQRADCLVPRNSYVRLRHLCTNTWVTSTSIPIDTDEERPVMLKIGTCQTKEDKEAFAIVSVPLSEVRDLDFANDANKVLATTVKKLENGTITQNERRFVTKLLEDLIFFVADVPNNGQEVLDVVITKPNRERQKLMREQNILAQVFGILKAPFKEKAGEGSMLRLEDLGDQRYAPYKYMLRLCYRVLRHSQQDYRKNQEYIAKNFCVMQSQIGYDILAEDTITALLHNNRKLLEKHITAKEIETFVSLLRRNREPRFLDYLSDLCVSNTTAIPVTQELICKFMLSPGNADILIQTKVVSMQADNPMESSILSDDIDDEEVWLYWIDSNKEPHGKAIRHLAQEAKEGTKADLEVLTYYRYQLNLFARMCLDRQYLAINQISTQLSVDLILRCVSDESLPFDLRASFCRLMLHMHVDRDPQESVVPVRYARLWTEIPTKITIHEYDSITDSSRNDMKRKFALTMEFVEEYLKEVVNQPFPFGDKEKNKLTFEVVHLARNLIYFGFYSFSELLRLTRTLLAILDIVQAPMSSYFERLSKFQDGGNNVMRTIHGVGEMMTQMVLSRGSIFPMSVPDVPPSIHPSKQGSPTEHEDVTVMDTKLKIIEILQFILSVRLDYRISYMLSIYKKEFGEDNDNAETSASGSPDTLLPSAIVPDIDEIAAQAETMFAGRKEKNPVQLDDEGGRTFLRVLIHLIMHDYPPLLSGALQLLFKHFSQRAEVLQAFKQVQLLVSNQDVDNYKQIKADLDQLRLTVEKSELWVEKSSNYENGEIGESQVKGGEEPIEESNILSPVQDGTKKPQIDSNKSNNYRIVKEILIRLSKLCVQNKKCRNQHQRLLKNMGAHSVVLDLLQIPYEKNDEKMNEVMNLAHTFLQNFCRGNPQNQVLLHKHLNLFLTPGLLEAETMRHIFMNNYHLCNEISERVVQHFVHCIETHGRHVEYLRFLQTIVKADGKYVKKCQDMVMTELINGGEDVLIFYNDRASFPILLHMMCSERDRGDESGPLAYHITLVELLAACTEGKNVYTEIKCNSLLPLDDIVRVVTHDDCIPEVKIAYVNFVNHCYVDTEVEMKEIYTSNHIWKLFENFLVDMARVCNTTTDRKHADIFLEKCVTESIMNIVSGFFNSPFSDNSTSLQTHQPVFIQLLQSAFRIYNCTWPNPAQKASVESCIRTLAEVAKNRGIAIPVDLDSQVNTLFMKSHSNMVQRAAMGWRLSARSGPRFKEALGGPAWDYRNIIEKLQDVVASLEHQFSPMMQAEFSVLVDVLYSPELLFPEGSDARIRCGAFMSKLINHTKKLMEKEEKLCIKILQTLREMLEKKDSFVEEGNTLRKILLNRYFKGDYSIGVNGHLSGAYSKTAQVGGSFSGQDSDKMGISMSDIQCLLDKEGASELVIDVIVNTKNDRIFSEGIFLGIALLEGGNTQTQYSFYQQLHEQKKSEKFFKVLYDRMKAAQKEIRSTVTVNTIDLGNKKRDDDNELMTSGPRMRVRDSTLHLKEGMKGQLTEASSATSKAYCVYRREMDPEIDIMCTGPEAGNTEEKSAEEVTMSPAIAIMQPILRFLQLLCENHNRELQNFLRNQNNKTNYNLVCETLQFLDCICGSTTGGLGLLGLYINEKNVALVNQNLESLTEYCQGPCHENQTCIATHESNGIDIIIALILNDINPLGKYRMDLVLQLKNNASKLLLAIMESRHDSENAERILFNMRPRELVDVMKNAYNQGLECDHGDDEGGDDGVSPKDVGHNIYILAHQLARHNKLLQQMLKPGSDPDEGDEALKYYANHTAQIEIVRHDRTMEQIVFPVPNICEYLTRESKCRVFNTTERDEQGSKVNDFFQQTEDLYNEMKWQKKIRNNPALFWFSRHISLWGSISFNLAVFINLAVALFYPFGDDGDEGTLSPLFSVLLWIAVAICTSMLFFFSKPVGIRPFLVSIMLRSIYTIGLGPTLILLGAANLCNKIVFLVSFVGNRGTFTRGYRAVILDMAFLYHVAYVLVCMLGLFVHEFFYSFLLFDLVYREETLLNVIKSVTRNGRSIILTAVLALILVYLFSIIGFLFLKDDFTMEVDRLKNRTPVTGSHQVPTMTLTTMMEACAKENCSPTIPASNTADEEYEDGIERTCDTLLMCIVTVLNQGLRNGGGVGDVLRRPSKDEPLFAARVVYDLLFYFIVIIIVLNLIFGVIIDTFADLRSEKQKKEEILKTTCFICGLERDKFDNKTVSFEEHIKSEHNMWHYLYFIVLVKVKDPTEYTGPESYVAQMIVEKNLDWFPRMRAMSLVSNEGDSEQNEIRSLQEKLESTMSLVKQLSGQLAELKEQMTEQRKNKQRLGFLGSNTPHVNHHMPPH

Regarding `C=CC(=O)N1C[C@H](c2ccc(Br)cc2)[C@@H]1C(=O)Nc1cccc2cccnc12` [MY-1B, (2R,3S)-1-acryloyl-3-(4-bromophenyl)-N-(quinolin-8-yl)azetidine-2-carboxamide], the “% engagement PRXL2A_C88” value at PRXL2A_C88 was determined as 97.25%. At SYNE2_C2993, the “% engagement SYNE2_C2993” value is listed as 76.5%. Also, on ITPR2_C579, the “% engagement ITPR2_C579” value came out at 11.25%. In addition, on CDKN2AIP_C516, the “% engagement CDKN2AIP_C516” value is given as 24%. The “% engagement HSDL1_C265” value at HSDL1_C265 was found to be 54%.

As for `C=CC(=O)N1C[C@H](c2ccc(Br)cc2)[C@H]1C(=O)Nc1cccc2cccnc12` [MY-3B, (2S,3S)-1-acryloyl-3-(4-bromophenyl)-N-(quinolin-8-yl)azetidine-2-carboxamide], at PRXL2A_C88, the “% engagement PRXL2A_C88” value is listed as 97.25%. The “% engagement SYNE2_C2993” value on SYNE2_C2993 worked out at 54.5%. The “% engagement ITPR2_C579” value at ITPR2_C579 is recorded as 70.75%. Also, the “% engagement CDKN2AIP_C516” value at CDKN2AIP_C516 is on record as 18.75%. In addition, on HSDL1_C265, the “% engagement HSDL1_C265” value is reported as 82%.

Regarding `C=CC(=O)N1C[C@H](c2ccc(Br)cc2)[C@H]1C(=O)Nc1cccc2cccnc12` [MY-3A, (2S,3S)-1-acryloyl-3-(4-bromophenyl)-N-(quinolin-8-yl)azetidine-2-carboxamide], the “% engagement PRXL2A_C88” value at PRXL2A_C88 is 95%. Moreover, the “% engagement SYNE2_C2993” value on SYNE2_C2993 stood at 26.5%. The “% engagement ITPR2_C579” value on ITPR2_C579 was 4.5%. In addition, on CDKN2AIP_C516, the “% engagement CDKN2AIP_C516” value is on record as 12.75%. The “% engagement HSDL1_C265” value on HSDL1_C265 came out at 64.25%.

Regarding `C=CC(=O)N1C[C@@H](c2ccc(Br)cc2)[C@H]1C(=O)Nc1cccc2cccnc12` [MY-1A, (2S,3R)-1-acryloyl-3-(4-bromophenyl)-N-(quinolin-8-yl)azetidine-2-carboxamide], the “% engagement PRXL2A_C88” value at PRXL2A_C88 was 96.25%. Moreover, the “% engagement SYNE2_C2993” value on SYNE2_C2993 was −20%. At ITPR2_C579, the “% engagement ITPR2_C579” value was found to be 7.75%. Besides, the “% engagement CDKN2AIP_C516” value at CDKN2AIP_C516 worked out at 66.5%. For the same compound, the “% engagement HSDL1_C265” value at HSDL1_C265 was 52%.
